Calls of active or inactive are those of the source. The calls are words filed in the database; no cut-off is given here.
Experiments:
[1] = test system: RAW264.7; assay: Antiinflammatory activity in LPS-induced mouse RAW264.7 cells assessed as decrease in COX-2 expression at 10 uM pretreated for 2 hrs followed by stimulation with LPS for 22 hrs by Western blot analysis; assay type: functional, cell-based; conditions: time 24.0 hrs
[2] = test system: RAW264.7; assay: Antiinflammatory activity in LPS-induced mouse RAW264.7 cells assessed as decrease in IL-6 expression at 6 uM pretreated for 2 hrs followed by stimulation with LPS for 6 hrs by Western blot analysis; assay type: functional, cell-based; conditions: time 8.0 hrs
[3] = test system: RAW264.7; assay: Antiinflammatory activity in LPS-induced mouse RAW264.7 cells assessed as decrease in IL-6 expression at 6 uM pretreated for 2 hrs followed by stimulation with LPS for 6 hrs by RT-PCR analysis; assay type: functional, cell-based
[4] = test system: RAW264.7; assay: Antiinflammatory activity in LPS-induced mouse RAW264.7 cells assessed as decrease in IL-1beta expression at 6 uM pretreated for 2 hrs followed by stimulation with LPS for 6 hrs by Western blot analysis; assay type: functional, cell-based
[5] = test system: RAW264.7; assay: Antiinflammatory activity in LPS-induced mouse RAW264.7 cells assessed as decrease in IL-1beta expression at 6 uM pretreated for 2 hrs followed by stimulation with LPS for 6 hrs by RT-PCR analysis; assay type: functional, cell-based
[6] = test system: RAW264.7; assay: Antiinflammatory activity in LPS-induced mouse RAW264.7 cells assessed as decrease in COX-2 expression pretreated for 2 hrs followed by stimulation with LPS for 22 hrs by Western blot analysis; assay type: functional, cell-based
[7] = Cytotoxicity against mouse RAW264.7 cells assessed as cell viability after 24 hrs by MTT assay; assay type: toxicity, cell-based

IC50 ([6]; raw264.7) [µM] | IC50 ([6]; Mus musculus, RAW264.7) [µM] | Structure (SMILES) | Activity [1] | Activity [2] | Activity [3] | Activity [4] | Activity [5] | IC50 at 24 h [7] [µM]
 |  | CC(=O)OC[C@]1(O)CC[C@@H]2[C@@H]1CC(C)(C)C[C@H]1C[C@]12C | Active |  |  |  |  | 
 |  | CC(=O)OCC1(O)CCC2C1CC(C)(C)CC1CC12C (single isomer, unassigned; (-)) [listing 1 of 2 here] | Active | Active | Active | Active | Active | 
8.18 |  | CC(=O)OCC1(O)CCC2C1CC(C)(C)CC1CC12C (single isomer, unassigned; (-)) [listing 2 of 2 here] |  |  |  |  |  | 
 | 8.17 | C=CCC(C)(C)C[C@@H]1C(=O)CC[C@H]1C(=C)C | Active | Active | Active | Active | Active | > 10
 |  | CC(=O)OCC1(O)CCC2C1CC(C)(C)CC1CC12C (single isomer, unassigned; (+)) [listing 1 of 2 here] | Active | Active | Active | Active | Active | 
 | 6.64 | CC(=O)OCC1(O)CCC2C1CC(C)(C)CC1CC12C (single isomer, unassigned; (+)) [listing 2 of 2 here] |  |  |  |  |  | > 10
 | 4.61 | CC(=O)OC[C@@]1(O)CC[C@@H]2[C@@H]1CC(C)(C)C[C@H]1C[C@]12C | Active | Active | Active | Active | Active | > 10
